These are literature values, as cited in PMC3378994 (Bioorganic & medicinal chemistry letters, 2012).

The target in the series is DAT (Rattus norvegicus, UniProt P23977).
DAT, sequence (P23977 whole entry): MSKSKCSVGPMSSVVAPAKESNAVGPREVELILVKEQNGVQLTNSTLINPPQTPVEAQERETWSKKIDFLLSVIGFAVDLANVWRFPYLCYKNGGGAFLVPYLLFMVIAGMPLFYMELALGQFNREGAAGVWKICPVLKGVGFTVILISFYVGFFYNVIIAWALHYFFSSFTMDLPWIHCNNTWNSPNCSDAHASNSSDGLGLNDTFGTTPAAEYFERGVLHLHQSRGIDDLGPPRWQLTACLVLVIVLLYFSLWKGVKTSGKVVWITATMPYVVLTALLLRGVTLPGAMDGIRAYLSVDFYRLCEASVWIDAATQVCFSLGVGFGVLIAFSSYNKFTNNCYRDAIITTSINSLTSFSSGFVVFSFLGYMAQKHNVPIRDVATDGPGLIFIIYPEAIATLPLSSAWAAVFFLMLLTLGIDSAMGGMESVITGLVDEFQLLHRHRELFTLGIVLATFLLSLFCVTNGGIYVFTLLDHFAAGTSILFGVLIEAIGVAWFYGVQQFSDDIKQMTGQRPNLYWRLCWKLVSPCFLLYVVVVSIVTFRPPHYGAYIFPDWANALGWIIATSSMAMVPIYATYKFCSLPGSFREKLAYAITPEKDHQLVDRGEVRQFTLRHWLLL

For the compound `Cc1ccc([C@H]2C[C@@H]3CC[C@H]([C@H]2C(=O)OCC[18F])N3C/C=C/I)cc1` [[^18F]FE-PE2I], the “Fold lower affinity to other monoamine transporters than to DAT” value is “more than 50 fold”.
